Measurements taken from patent publication US9226499B2, “Protected antimicrobial compounds for high temperature applications” (Dow Global Technologies LLC, priority 2010, dated 2016).

Legend:
[1] = system: T. thermophilus; assay: Biocidal efficacy against thermophilic bacteria at 70° C., dilution to extinction; format: cell-based; conditions: equivalent of 100 ppm glutaraldehyde, after 5 days with re-challenging
Description: b. Thermophilic Bacteria. A 48-72 hour old culture of T. thermophilus is pelleted by centrifuging at 2000 g and the pellet resuspended in 10 times the culture volume of buffer (PBS or carbonate-buffered synthetic freshwater). The suspension is distributed into 10 mL aliquots in glass screw-cap tubes. Each tube is then treated with glutaraldehyde or an adduct and incubated at 70° C. At indicated timepoints, cell density in each tube is measured via dilution to extinction by serially diluting a sample and plating dilutions on solid media.

[2] = Analysis of glutaraldehyde release after heat-aging; format: physicochemical; conditions: sterile deionized water, molar equivalent of 2000 ppm glutaraldehyde; initial and heat-aged at 55° C. for 2 h or 24 h
Description: Samples of the IPHA-adduct are analyzed for glutaraldehyde content. Samples are prepared in sterile deionized water at the molar equivalent of 2000 ppm glutaraldehyde. A standard of 500 ppm glutaraldehyde is also prepared. An initial measurement is taken just after sample preparation. Samples are then heat-aged at 55° C. for 2 h or 24 h and analyzed again. Glutaraldehyde concentration is measured directly via GC and after pre-column derivatization by HPLC.

Structure (SMILES) | Control of bacterial levels after 5 days [1] | Glutaraldehyde concentration after pre-column derivatization by HPLC [2] | Glutaraldehyde concentration measured directly via GC [2]
O=CCCCC=O [glutaraldehyde] | fails to control bacterial levels | – | –
CC(C)/[N+]([O-])=C/CCC/C=[N+](\[O-])C(C)C [IPHA-adduct, N,N′-(pentane-1,5-diylidene)bis(propan-2-amineoxide)] | – | low levels of glutaraldehyde | No glutaraldehyde is detected
